Consider one molecule from publication PMC4197335, “Cancer-Selective Targeting of the NF-κB Survival Pathway with GADD45β/MKK7 Inhibitors” (Cancer Cell, 2014).

Like-named read-outs stand apart in the source and are kept apart here.

For orientation: AUC means concentration integrated over time. Read a high AUC as more exposure. In general, Vd refers to the apparent volume that relates the amount in the body to the concentration in plasma or blood. Higher therefore signals extensive tissue distribution. Usually clearance stands for the rate of elimination divided by the concentration. The half-life is how long it takes for the measured level to halve. As usually defined, the fraction unbound is free concentration divided by total concentration. Usually logD stands for lipophilicity at a set pH, counting ionised and neutral species. A high value points to a more lipophilic compound. What is called inhibition is the percentage by which the read-out fell short of the control.

A short description of data set [1]: pharmacokinetics after single intravenous injection. Here is the method:
The pharmacokinetic analyses of DTP3 and z-DTP2 were outsourced. Additional details are provided in Supplemental Experimental Procedures. […]
(§1) Pharmacokinetic Anal yses
In vitro and in vivo pharmacok inetic analyses were outsourced to Cypr ot ex (http://www.c yprotex.com/home/) (Figure 7A, Tables S6). In vitro pharmacok inetic assays were perf ormed according to established, in- house protocols and included: plasma stability (human), thermodynamic solubility (PBS pH 7.4, at 37 °C f or 14 days), microsomal stability (human), plasma protein binding (PPB; mouse and human), and distribution coeff icient (LogD). In vivo pharmacok inetic […]
analyses were also perf ormed at Cyprotex according to established, in- house protocols. Brief ly, the peptides were dissolved in PBS and administered by single intravenous injection t o CD1 male mice at the dose of 10 mg/kg (25 -30 g of total body weight; n=3 mice per time point per compound) . Blood samples were collected in heparinized tubes at up to 7 tim e points after this injection (i.e. 0.08, 0.25, 0.5, 1, 2, 4 and 8 hr), and the plasma concentrations of the test peptide were determined at each time point by LC-MS/ MS, using a f ive- point standard curve covering a peptide concentration range from 3 to 3,000 ng/mL. Standard curves were prepared using blank plasma matrices and treated in the same manner as the test samples. The main pharmacok inetic parameters determined in these analyses were: terminal half-lif e (t 1/2 ), plasma clearance (CL), volume of distribution (V d ), and area under the plasma concentration versus time curve (AUC) (Figure 7A, Table S6). Values were calculated from the data of the peptide plasma concentration versus time curves using a non-compartmental model analysis, as described elsewhere (Groulx, 2006; Landaw and Di Stef ano 3rd, 1982) . […]

Another data set is described as follows: plasma protein binding. It is filed as in vitro ADME. To be noted: read-out: PPB (fraction unbound).
Excerpt: (§2) Pharmacophore Model Building
(§3) The pharmacophore predictive
(§4) Broad- Panel Kinase Profiling
(§5) according to in-house protocols therein.
as §1
(§6) In vitro pharmacok inetic assays were […]

A short description of data set [2]: distribution coefficient (LogD). It is filed as physicochemical.
Excerpt: as §2, §3, §4, §5, §1, §6

In another data set the target is T1, GADD45β/MKK7 complex (Homo sapiens, UniProt O14733).
T1 construct: Full-length human (h)MKK7 was expressed as a protein fused to an N-terminal GST tag (GST-MKK7); made in house
T1 sequence (O14733 1-419): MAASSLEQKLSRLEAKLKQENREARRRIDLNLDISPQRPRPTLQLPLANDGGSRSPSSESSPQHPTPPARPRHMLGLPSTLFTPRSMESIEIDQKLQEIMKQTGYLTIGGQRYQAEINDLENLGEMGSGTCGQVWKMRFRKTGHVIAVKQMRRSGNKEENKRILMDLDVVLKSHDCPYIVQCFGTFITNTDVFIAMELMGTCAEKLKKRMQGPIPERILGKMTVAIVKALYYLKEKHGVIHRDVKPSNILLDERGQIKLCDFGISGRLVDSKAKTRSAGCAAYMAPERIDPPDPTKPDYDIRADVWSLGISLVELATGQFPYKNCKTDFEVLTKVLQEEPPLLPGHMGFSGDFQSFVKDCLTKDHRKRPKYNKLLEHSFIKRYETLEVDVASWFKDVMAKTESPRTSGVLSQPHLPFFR
Put plainly: ELISA GADD45β/MKK7 competition assay. It is filed as binding. On the technique in general: ELISA stands for enzyme-linked immunosorbent assay.

`CC(=O)N[C@H](Cc1ccc(O)cc1)C(=O)N[C@H](CCCNC(=N)N)C(=O)N[C@H](Cc1ccccc1)C(N)=O` [DTP3, Ac-YRF-NH2]: in data set [1] (k0 = k1 x Vd x Cp), the “predicted dose required to achieve the therapeutic plasma concentration of 1 μM at the steady state” value is 0.81 mg/kg/h. In data set [1] (mouse, in vivo, iv, 10 mg/kg), this molecule gave an AUC of 6430 ± 10 ng·h/mL, a Vd of 2.8 ± 1.26 L/kg, a clearance of 27.1 ± 4.09 mL/min/kg and a half-life of 1.26 h. The fraction unbound in “plasma protein binding” (human) is 0.933 ± 0.004. For the same molecule, the fraction unbound in the data set “plasma protein binding” (mouse) amounted to 0.42 ± 0.01. In data set [2], this molecule came in with a logD of 1.19 ± 0.29. The IC50 on GADD45β/MKK7 complex (Table S4, read-out: IC50s (ELISA)) was 0.16 nM. Further, at GADD45β/MKK7 complex (read-out: % inhibition of (ELISA)), the inhibition at 0.042 µM turned out to be 94%.
